{
  "source": "patent US20240032546A1",
  "about": "“BRASSICA SEED MEAL (BSM)-BASED BIO-HERBICIDE FOR INHIBITING WEED GERMINATION, AND PREPARATION METHOD AND USE THEREOF” (Institute of Soil Science, CAS, priority 2022, published 2024)",
  "tested_on": "field weeds (Portulaca oleracea L., Bothriochloa ischaemum L., Eleusine indica L., Setaria viridis L., and Amaranthus spinosus L.)",
  "test": "Field soil test of weed growth and germination inhibition",
  "assay_type": "in vivo",
  "details": "after 1 week, dazomet 40 g/m2, BSM-based bio-herbicide 0.8 wt %",
  "method": "Dazomet was added to the field soil at 40 g/m 2 of soil (as a treatment 1). The BSM-based bio-herbicide (Example 1) was added to another field soil at 0.8 wt % of the BSM per mu of soil (1 mu=300,000 jin) (as a treatment 2). The same area of field soil without adding any exogenous substances was used as a control. After 1 week, the weed growth of the two treatments and the control (field weeds included Portulaca oleracea L., Bothriochloa ischaemum L., Eleusine indica L., Setaria viridis L., and Amaranthus spinosus L.) was counted, and the germination inhibition rate of weed seeds was calculated.",
  "data": [
    {"smiles": "CN1CSC(=S)N(C)C1", "note": "[dazomet, Dazomet]", "values": [
      {"measurement": "inhibition rate to the field weeds compared with the control", "result": 86.84, "unit": "%"},
      {"measurement": "weight of field weeds", "setting": "control 1.550 kg/m^2", "result": 0.204, "unit": "kg/m^2"}
    ]}
  ]
}
